Measurements from PubChem BioAssay (NCI).
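Results reflect a 48-hour exposure of cells in 96-well plates to compound at five concentrations. GI50 marks 50% less growth. Definition used: TGI = concentration required for complete inhibition of growth.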

Key:
Assay in all cases: NCI-60 cell line screen, 48 h
COLO 205 colon = system: COLO 205 colon
K-562 leukemia = system: K-562 leukemia
KM12 colon = system: KM12 colon
OVCAR-4 ovarian = system: OVCAR-4 ovarian
OVCAR-8 ovarian = system: OVCAR-8 ovarian
SF-295 CNS = system: SF-295 CNS
SK-OV-3 ovarian = system: SK-OV-3 ovarian
SN12C renal = system: SN12C renal
SNB-19 CNS = system: SNB-19 CNS
SR leukemia = system: SR leukemia

| Structure (SMILES) | GI50 (COLO 205 colon) | TGI (COLO 205 colon) | GI50 (K-562 leukemia) | TGI (K-562 leukemia) | GI50 (KM12 colon) | TGI (KM12 colon) | GI50 (OVCAR-4 ovarian) | TGI (OVCAR-4 ovarian) | GI50 (OVCAR-8 ovarian) | TGI (OVCAR-8 ovarian) | GI50 (SF-295 CNS) | TGI (SF-295 CNS) | GI50 (SK-OV-3 ovarian) | TGI (SK-OV-3 ovarian) | GI50 (SN12C renal) | TGI (SN12C renal) | GI50 (SNB-19 CNS) | TGI (SNB-19 CNS) | GI50 (SR leukemia) | TGI (SR leukemia) |
| --- | --- | --- | --- | --- | --- | --- | --- | --- | --- | --- | --- | --- | --- | --- | --- | --- | --- | --- | --- | --- |
| CC(=O)OC1CCC2(C)C(=CCC3C4CC(CN5CC5)C(=O)C4(C)CCC32)C1 (stereo not given) | 3.71 µM | 12 µM | 3.33 µM | 14.2 µM | 3.11 µM | 11 µM | 2.8 µM | 9.55 µM | 12.2 µM | 26.2 µM | 22 µM | > 55.4 µM | 15.6 µM | 29.6 µM | 15.4 µM | 30.4 µM | 14.1 µM | 29.5 µM | 3.39 µM | 13.5 µM |
| Brc1ccc2c(c1)-c1ccccc1C1=NCCN12 | 0.652 µM | 2.33 µM | 0.857 µM | 5.1 µM | 1.02 µM | 11.3 µM | 1.43 µM | 8.53 µM | 0.573 µM | 12.1 µM | 0.984 µM | 4 µM | 2.88 µM | 16.6 µM | 1.13 µM | 13 µM | 2.17 µM | 11.6 µM | 0.753 µM | 3.83 µM |
| COc1ccc(S(=O)(=O)NCCCNc2nccc(-c3c(-c4ccc(F)cc4)nc4sccn34)n2)cc1 | 5.58 µM | 73.9 µM | 2.99 µM | > 100 µM | 5.07 µM | > 100 µM | 3.07 µM | 27.2 µM | 4.3 µM | > 100 µM | 11.2 µM | 72.3 µM | 8.11 µM | > 100 µM | 7.55 µM | > 100 µM | 40.2 µM | > 100 µM | 3.69 µM | > 100 µM |
| Cc1[nH]n(C(=O)c2ccc(Cl)cc2)c(=O)c1/C=C1\C(O)=CC(=O)c2ccccc21 | – | > 100 µM | – | > 100 µM | – | > 100 µM | – | > 100 µM | – | > 100 µM | – | > 100 µM | – | > 100 µM | – | > 100 µM | – | > 100 µM | – | – |
| CS(=O)(=O)Nc1ccc(Nc2c3ccccc3nc3cc(Cl)ccc23)cc1 | 1.51 µM | 15.6 µM | 2.11 µM | > 48.6 µM | 3.81 µM | 18.5 µM | 3.84 µM | 21.7 µM | 1.76 µM | 15.6 µM | 1.07 µM | 15.3 µM | 1.28 µM | 13.3 µM | 0.654 µM | 16.1 µM | 1.51 µM | 17.5 µM | 0.177 µM | 16 µM |
| Cc1nc(-c2cccnc2)sc1C(=O)/C=C/c1ccc(Cl)cc1Cl | – | > 100 µM | – | > 100 µM | – | > 100 µM | – | – | – | > 100 µM | – | > 100 µM | – | > 100 µM | – | > 100 µM | – | – | – | – |
| CC(=O)OCC1OC(OC(C)=O)C(NC#N)C(OC(C)=O)C1OC(C)=O (stereo not given) | – | > 100 µM | – | > 100 µM | – | > 100 µM | – | > 100 µM | – | > 100 µM | – | > 100 µM | – | > 100 µM | – | > 100 µM | – | > 100 µM | – | > 100 µM |
| COc1cccc(OC)c1/C=N\N1C(=O)c2ccccc2C1=O | – | – | – | > 100 µM | – | > 100 µM | – | > 100 µM | – | 89.3 µM | – | > 100 µM | – | – | – | > 100 µM | – | > 100 µM | – | 74.5 µM |
| COC(=O)C1=C(C)N(NC(=O)Nc2ccccc2)C2(N)N(NC(=O)Nc3ccccc3)C(C)=C(C(=O)OC)C12C(=O)OC (stereo not given) | – | > 100 µM | – | > 100 µM | – | – | – | > 100 µM | – | > 100 µM | – | – | – | > 100 µM | – | > 100 µM | – | – | – | – |
| COc1ccc(-c2ccc(/C=N/n3c(COc4ccc(Cl)c(C)c4)nn(CN4CCOCC4)c3=S)o2)c([N+](=O)[O-])c1 | 39.8 µM | > 100 µM | 20.4 µM | 51.7 µM | 29.1 µM | > 100 µM | 31.9 µM | 76.7 µM | 33.5 µM | > 100 µM | 18.6 µM | 46.6 µM | 34.4 µM | > 100 µM | 21.3 µM | 48.1 µM | 41.2 µM | > 100 µM | 26.3 µM | 72.1 µM |
| CCCCCCCCCCCCCCCC(=O)NCC(OCC)OCC | – | > 100 µM | – | – | – | > 100 µM | – | > 100 µM | – | > 100 µM | – | > 100 µM | – | > 100 µM | – | > 100 µM | – | > 100 µM | – | – |
| CC(C)=NO.CC(C)=NO.CC(C)=NO.CC(C)=NO.[Ti] | > 100 µM | > 100 µM | > 100 µM | > 100 µM | > 100 µM | > 100 µM | > 100 µM | > 100 µM | > 100 µM | > 100 µM | > 100 µM | > 100 µM | > 100 µM | > 100 µM | > 100 µM | > 100 µM | > 100 µM | > 100 µM | – | – |
| OCCn1c(-c2ccncc2)c(-c2ccc(F)cc2)c2ncccc21 | > 25 µM | > 25 µM | > 25 µM | > 25 µM | > 25 µM | > 25 µM | > 25 µM | > 25 µM | > 25 µM | > 25 µM | > 25 µM | > 25 µM | > 25 µM | > 25 µM | > 25 µM | > 25 µM | > 25 µM | > 25 µM | > 25 µM | > 25 µM |
| CCCCc1c2c(nc3c1CC/C(=C\c1ccccc1)C3=O)CCCC2 | – | 23.1 µM | – | 32.3 µM | – | 13.5 µM | – | – | – | 4.79 µM | – | 16 µM | – | 22.9 µM | – | 10.9 µM | – | 12.6 µM | – | 11.5 µM |
| C=CCCC1(CCP(=O)(c2ccccc2)c2ccccc2)OCCO1 | – | > 100 µM | – | > 100 µM | – | > 100 µM | – | – | – | > 100 µM | – | > 100 µM | – | – | – | > 100 µM | – | > 100 µM | – | > 100 µM |
| Cc1cc2c(=O)cc(-c3ccncc3)oc2c(C(=O)O)c1C | – | > 100 µM | – | – | – | – | – | – | – | > 100 µM | – | > 100 µM | – | > 100 µM | – | > 100 µM | – | > 100 µM | – | > 100 µM |
